pIC50: −log10 of the molar value.
Target: SARS-CoV-2 Papain-Like Protease (PLpro) (Severe acute respiratory syndrome coronavirus 2 (2019-nCoV) (SARS-CoV-2), UniProt P0DTD1)
Experiment: biochemical
Details: PLpro enzymatic fluorescence assay; class symbols; read-out: PLpro IC50

Structure (SMILES) | pIC50
Cc1ccc(O[C@@H]2CCCC[C@H]2N)cc1CNC1(c2cccc3ccccc23)CC1 (single isomer, unassigned) [Compound 429] | 6.00 to 7.00
Cc1ccc(OCC2CCN2C)cc1C(=O)NC1(c2nccc3ccccc23)CC1 (stereo not shown) [Compound 454, N-(1-(Isoquinolin-1-yl)cyclopropyl)-2-methyl-5-((1-methylazetidin-2-yl)methoxy)benzamide] | 6.00 to 7.00
C=C(C)c1cc(C2(NC(=O)c3cc(OC[C@@H]4CCN4)ccc3C)CC2)c2cccnc2c1 [Compound 613, (S)-5-(Azetidin-2-ylmethoxy)-2-methyl-N-(1-(7-(prop-1-en-2-yl)quinolin-5-yl)cyclopropyl)benzamide] | > 7.00
C#Cc1cc(C2(NC(=O)c3cc(OC[C@@H]4CCN4)ccc3C)CC2)c2cccnc2c1 [Compound 697, (S)-5-(Azetidin-2-ylmethoxy)-N-(1-(7-ethynylquinolin-5-yl)cyclopropyl)-2-methylbenzamide] | > 7.00
Cc1cccc(/C=C/c2cc(C3(NC(=O)c4cc(OC[C@@H]5CCN5C)ccc4C)CC3)c3cccnc3c2)c1 [Compound 690, (S,E)-2-Methyl-5-((1-methylazetidin-2-yl)methoxy)-N-(1-(7-(3-methylstyryl)quinolin-5-yl)cyclopropyl)benzamide] | > 7.00
CNCCOc1ccc(C)c(C(=O)NC2(c3cc(-c4ccnn4C)cc4ncccc34)CC2)c1 [Compound 639, 2-Methyl-N-(1-(7-(1-methyl-1H-pyrazol-5-yl)quinolin-5-yl)cyclopropyl)-5-(2-(methylamino)ethoxy)benzamide] | > 7.00
Cc1ccc2c(C3(NC(=O)c4cc(OC[C@@H]5CCN5C)ccc4C)CC3)cc(CCC(F)(F)F)cc2n1 [Compound 815, (S)-2-Methyl-N-(1-(2-methyl-7-(3,3,3-trifluoropropyl)quinolin-5-yl)cyclopropyl)-5-((1-methylazetidin-2-yl)methoxy)benzamide] | > 7.00
CC(c1cc(-c2cccs2)cc2ccccc12)N1CCC(C(=O)NCc2cccc(F)c2)CC1 (stereo not shown) [Compound 599, N-(3-Fluorobenzyl)-1-(1-(3-(thiophen-2-yl)naphthalen-1-yl)ethyl)piperidine-4-carboxamide] | 5.30 to 6.00
[2H]C([2H])([2H])N1CC[C@H]1COc1ccc(C)c(C(=O)NC2(c3cc(OC)cc4ncccc34)CC2)c1 [Compound 732, (S)-N-(1-(7-Methoxyquinolin-5-yl)cyclopropyl)-2-methyl-5-((1-(methyl-d3)azetidin-2-yl)methoxy)benzamide] | > 7.00
Cc1cc(-c2cc(C3(NC(=O)c4cc(OC[C@@H]5CCN5C)ccc4C)CC3)c3cccnc3c2)n[nH]1 [Compound 651, (S)-2-Methyl-N-(1-(7-(5-methyl-1H-pyrazol-3-yl)quinolin-5-yl)cyclopropyl)-5-((1-methylazetidin-2-yl)methoxy)benzamide] | > 7.00
COc1cc(C2(NC(=O)c3cc(OC[C@@H]4C[C@@H](F)CN4C)ccc3C)CC2)c2cccnc2c1 [Compound 532, 5-(((2S,4R)-4-Fluoro-1-methylpyrrolidin-2-yl)methoxy)-N-(1-(7-methoxyquinolin-5-yl)cyclopropyl)-2-methylbenzamide] | > 7.00
COc1cc(C2(NC(=O)c3cc(OC[C@@H]4CCN4C)ccc3C)CC2)c2ccc(C(F)(F)F)nc2c1 [Compound 817, (S)-N-(1-(7-Methoxy-2-(trifluoromethyl)quinolin-5-yl)cyclopropyl)-2-methyl-5-((1-methylazetidin-2-yl)methoxy)benzamide] | > 7.00
COc1cc2c(C3(NC(=O)c4cc(OCC5CCN5C)ccc4C)CC3)cccc2cn1 (stereo not shown) [Compound 456, N-(1-(3-Methoxyisoquinolin-5-yl)cyclopropyl)-2-methyl-5-((1-methylazetidin-2-yl)methoxy)benzamide] | > 7.00
COc1cc(C2(NC(=O)c3cc(O[C@H]4CC[C@@H]5CN(C)CCN5C4)ccc3C)CC2)c2cccnc2c1 [Compound 783] | > 7.00

Same assay, conditions: SARS-CoV-2 PLpro enzymatic fluorescence assay; read-out: PLpro IC50

Structure (SMILES) | pIC50
Cc1ccc(OCC2CCN2C)cc1C(=O)NC1(c2cc(C#N)cc3ccccc23)CC1 (stereo not shown) [Compound 484, N-(1-(3-Cyanonaphthalen-1-yl)cyclopropyl)-2-methyl-5-((1-methylazetidin-2-yl)methoxy)benzamide] | > 7.00
Cc1ccc(NC2CNC2)cc1C(=O)NCc1ccc(-c2ccc(CN3CCCC3)s2)cc1 [Compound 116, 5-(Azetidin-3-ylamino)-2-methyl-N-(4-(5-(pyrrolidin-1-ylmethyl)thiophen-2-yl)benzyl)benzamide] | < 5.30
COc1cc(C2(NC(=O)c3cc(OCCN)ccc3C)CC2)c2ccccc2c1 [Compound 363, 5-(2-Aminoethoxy)-N-(1-(3-methoxynaphthalen-1-yl)cyclopropyl)-2-methylbenzamide] | > 7.00
CNCCOc1ccc(C)c(C(=O)NC2(c3cc(-c4cccs4)cc4ccccc34)CC2)c1 [Compound 486, 2-Methyl-5-(2-(methylamino)ethoxy)-N-(1-(3-(thiophen-2-yl)naphthalen-1-yl)cyclopropyl)benzamide] | > 7.00
Cc1ccc(OCCNCC2CC2)cc1C(=O)NC1(c2cccc3ccccc23)CC1 [Compound 361, 5-(2-((Cyclopropylmethyl)amino)ethoxy)-2-methyl-N-(1-(naphthalen-1-yl)cyclopropyl)benzamide] | > 7.00
Cc1ccc(OCC2CCN2C)cc1C(=O)NC1(c2cc(C(N)=O)cc3ccccc23)CC1 (stereo not shown) [Compound 520, 4-(1-(2-Methyl-5-((1-methylazetidin-2-yl)methoxy)benzamido)cyclopropyl)-2-naphthamide] | > 7.00
Cc1ccc(OCC2CCN2C)cc1C(=O)NC1(c2cccc3ccccc23)COC1 (stereo not shown) [Compound 387, 2-Methyl-5-((1-methylazetidin-2-yl)methoxy)-N-(3-(naphthalen-1-yl)oxetan-3-yl)benzamide] | > 7.00
Cc1ccc(N)cc1C(=O)NC(c1cccc2ccccc12)C(F)F (stereo not shown) [Compound 185, 5-Amino-N-(2,2-difluoro-1-(naphthalen-1-yl)ethyl)-2-methylbenzamide] | 5.30 to 6.00
Cc1ccc(OC[C@@H]2CCN2C)cc1C(=O)NC1(c2cc(OCc3ccccc3)cc3ncccc23)CC1 [Compound 598, (S)-N-(1-(7-(Benzyloxy)quinolin-5-yl)cyclopropyl)-2-methyl-5-((1-methylazetidin-2-yl)methoxy)benzamide] | > 7.00
CN(C)CCOc1ccc(C2CC2)c(C(=O)NC2(c3cccc4ccccc34)CC2)c1 [Compound 353, 2-Cyclopropyl-5-(2-(dimethylamino)ethoxy)-N-(1-(naphthalen-1-yl)cyclopropyl)benzamide] | < 5.30
Cc1ccc(OCC2CCN2C)cc1C(=O)NC1(c2cccc3ccc(N)cc23)CC1 (stereo not shown) [Compound 483, N-(1-(7-Aminonaphthalen-1-yl)cyclopropyl)-2-methyl-5-((1-methylazetidin-2-yl)methoxy)benzamide] | > 7.00
CCc1ccccc1C1(NC(=O)c2cc(OCCN(C)C)ccc2C)CC1 [Compound 364, 5-(2-(Dimethylamino)ethoxy)-N-(1-(2-ethylphenyl)cyclopropyl)-2-methylbenzamide] | 6.00 to 7.00
C=Cc1cc(C2(NC(=O)c3cc(OC[C@@H]4CCN4C)c(N)cc3C)CC2)c2cccnc2c1 [Compound 726, (S)-4-Amino-2-methyl-5-((1-methylazetidin-2-yl)methoxy)-N-(1-(7-vinylquinolin-5-yl)cyclopropyl)benzamide] | > 7.00
Cc1ccc(OCCN(C)C)cc1NC(=O)C(C)c1cccc2ccccc12 (stereo not shown) [Compound 577, N-(5-(2-(Dimethylamino)ethoxy)-2-methylphenyl)-2-(naphthalen-1-yl)propanamide] | < 5.30
Cc1ccc(OCC2CCN2C)cc1C(=O)NC1(c2cc(-c3cccs3)cc3ccccc23)CC1 (stereo not shown) [Compound 468, 2-Methyl-5-((1-methylazetidin-2-yl)methoxy)-N-(1-(3-(thiophen-2-yl)naphthalen-1-yl)cyclopropyl)benzamide] | > 7.00
Cc1cccc(C2(NC(=O)c3cc(OCCN(C)C)ccc3C)CC2)c1 [Compound 255, 5-(2-(Dimethylamino)ethoxy)-2-methyl-N-(1-(m-tolyl)cyclopropyl)benzamide] | < 5.30
Cc1ccc(OCC2CCN2C)cc1C(=O)NC1(c2cccc3cnccc23)CC1 (stereo not shown) [Compound 402, N-(1-(Isoquinolin-5-yl)cyclopropyl)-2-methyl-5-((1-methylazetidin-2-yl)methoxy)benzamide] | > 7.00
C=Cc1cc(C2(NC(=O)c3cc(OC[C@@H]4CCN4C)c(F)cc3C)CC2)c2cccnc2c1 [Compound 800, (S)-4-Fluoro-2-methyl-5-((1-methylazetidin-2-yl)methoxy)-N-(1-(7-vinylquinolin-5-yl)cyclopropyl)benzamide] | > 7.00
CNCC1Cc2cc(C)c(C(=O)NC3(c4cccc5ccccc45)CC3)cc2N1 (stereo not shown) [Compound 231, 5-Methyl-2-((methylamino)methyl)-N-(1-(naphthalen-1-yl)cyclopropyl)indoline-6-carboxamide] | > 7.00
Cc1ccc(Nc2cnn(C)c2)cc1C(=O)N[C@H](C)c1cccc(-c2ccc(CN[C@H]3CC[C@@H](O)C3)s2)c1 [Compound 137, N-((R)-1-(3-(5-((((1S,3R)-3-Hydroxycyclopentyl)amino)methyl)thiophen-2-yl)phenyl)ethyl)-2-methyl-5-((1-methyl-1H-pyrazol-4-yl)amino)benzamide] | 5.30 to 6.00
Cc1ccc(COC2CNC2)cc1C(=O)NC1(c2cccc3ccccc23)CC1 [Compound 435, 5-((Azetidin-3-yloxy)methyl)-2-methyl-N-(1-(naphthalen-1-yl)cyclopropyl)benzamide] | 6.00 to 7.00
COc1cc(C2(NC(=O)c3cc(OC[C@@H]4CCN4C)ccc3C)CC2)c2ccccc2n1 [Compound 555, (S)-N-(1-(2-Methoxyquinolin-4-yl)cyclopropyl)-2-methyl-5-((1-methylazetidin-2-yl)methoxy)benzamide] | > 7.00
Cc1ccc(OCCN(C)C)cc1C(=O)NC1(c2ccccc2C(C)C)CC1 [Compound 344, 5-(2-(Dimethylamino)ethoxy)-N-(1-(2-isopropylphenyl)cyclopropyl)-2-methylbenzamide] | 6.00 to 7.00
